Measured values reported in ChEMBL document CHEMBL3632486, “Interaction of carbonic anhydrase isozymes I, II, and IX with some pyridine and phenol hydrazinecarbothioamide derivatives” (Bioorg Med Chem Lett, 2015).

Columns and labels:
[1] = target: Carbonic anhydrase 2 (Homo sapiens, UniProt P00918); assay: Inhibition of human carbonic anhydrase 2 incubated for 15 mins prior to testing by stopped flow CO2 hydration assay
[2] = target: T1, Carbonic anhydrase 9 (Homo sapiens, UniProt Q16790)
Description: Inhibition of human carbonic anhydrase 9 incubated for 15 mins prior to testing by stopped flow CO2 hydration assay

[3] = target: Carbonic anhydrase 1 (Homo sapiens, UniProt P00915); assay: Inhibition of human carbonic anhydrase 1 incubated for 15 mins prior to testing by stopped flow CO2 hydration assay
Chain of Carbonic anhydrase 1 (P00915 whole entry): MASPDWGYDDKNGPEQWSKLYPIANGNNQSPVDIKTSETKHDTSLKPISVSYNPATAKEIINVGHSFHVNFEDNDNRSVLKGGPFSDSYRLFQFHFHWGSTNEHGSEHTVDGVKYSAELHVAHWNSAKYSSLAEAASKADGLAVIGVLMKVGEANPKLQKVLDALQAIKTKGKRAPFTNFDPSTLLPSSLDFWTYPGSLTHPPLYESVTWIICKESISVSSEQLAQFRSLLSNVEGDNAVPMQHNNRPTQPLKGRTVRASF

[4] = target: T1, Carbonic anhydrase 9; assay: Activation of human carbonic anhydrase 9 incubated for 15 mins prior to testing by stopped flow CO2 hydration assay

With Cc1ccc(NC(=S)NNC(=O)c2ccccc2O)cc1 the Ki [1] was > 10000 nM.

In the case of O=C(NNC(=S)NCc1ccccc1)c1ccccc1O, the Ki [2] is reported as 980 nM and the Ki [1] is reported as > 10000 nM.

In the case of C=CCNC(=S)NNC(=O)c1ccncc1, the Ki [3] is reported as 871 nM, the Activity [4] is reported as 12.3 µM and the Ki [2] is reported as 970 nM.

In the case of NC(=S)NNC(=O)c1ccccc1O, the Ki [2] is reported as 1010 nM and the Ki [1] is reported as > 10000 nM.

In the case of C=CCNC(=S)NNC(=O)c1ccccc1O, the Ki [2] is reported as 760 nM and the Ki [1] is reported as > 10000 nM.

In the case of CCNC(=S)NNC(=O)c1ccccc1O, the Ki [2] is reported as 878 nM and the Ki [1] is reported as > 10000 nM.

O=C(NNC(=S)NCc1ccccc1)c1ccncc1 was tested, and the Activity [4] was 0.81 µM and the Ki [2] was 964 nM.

For Cc1ccc(NC(=S)NNC(=O)c2ccncc2)cc1, the Activity [4] was 2.57 µM and the Ki [2] was 1120 nM.

Work on NC(=S)NNC(=O)c1ccncc1 yielded an Activity [4] of 3.61 µM.

In the case of O=C(NNC(=S)Nc1ccccc1)c1ccncc1, the Ki [3] is reported as 34.1 nM, the Activity [4] is reported as 1.42 µM and the Ki [2] is reported as 317 nM.

O=C(NNC(=S)Nc1ccccc1)c1ccccc1O was tested, and the Ki [2] was 1220 nM and the Ki [1] was > 10000 nM.

For CCN=C(S)NNC(=O)c1ccncc1, the Ki [3] was 96.9 nM, the Activity [4] was 12.5 µM and the Ki [2] was 884 nM.
